According to PubChem BioAssay (NCI):
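48-hour exposure; five concentrations; linearly interpolated endpoints. GI50 is the concentration that inhibits growth by half. TGI: total growth inhibition.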

Assays:
SK-OV-3 ovarian = experiment: NCI tumour cell line growth inhibition, 48 h
HS 578T breast = experiment: NCI tumour cell line growth inhibition, 48 h

COc1cccc(/C=C/C(=O)c2c(C)nc3ccccc3c2/C=C/c2ccccc2)c1OC
GI50 (SK-OV-3 ovarian): 54.1 µM
TGI (SK-OV-3 ovarian): > 100 µM
GI50 (HS 578T breast): 3.59 µM
TGI (HS 578T breast): > 100 µM
